Experiments:
[1] = biological target: T1, human H4 (Homo sapiens, UniProt Q9H3N8); experiment: In vitro histamine receptor cell-based assay (aequorin bioluminescence), H4 antagonism; settings: CHO-K1 cells expressing human H4, aequorin and Gα16; histamine at EC80; read-out: H4 Antagonist EC50
T1 construct: host or cells: CHO-K1
Protocol: (§1) The cell-based assays utilize an aequorin dependent bioluminescence signal. Doubly-transfected, stable CHO-K1 cell lines expressing human H1 or H4, mitochondrion-targeted aequorin, and (H4 only) human G protein Gα16 are obtained from Perkin-Elmer. Cells are maintained in F12 (Ham's) growth medium, containing 10% (vol./vol.) fetal bovine serum, penicillin (100 IU/mL), streptomycin (0.1 mg/mL), zeocin (0.25 mg/mL) and geneticin (0.40 mg/mL). Cell media components are from Invitrogen, Inc. One day prior to assay, the growth medium is replaced with the same, excluding zeocin and geneticin.
(§2) For assay preparation, growth medium is aspirated, and cells are rinsed with calcium-free, magnesium-free phosphate-buffered saline, followed by two to three minute incubation in Versene (Invitrogen, Inc.) at 37° C. Assay medium (DMEM:F12 [50:50], phenol-red free, containing 1 mg/mL protease-free bovine serum albumin) is added to collect the released cells, which are then centrifuged. The cell pellet is re-suspended in assay medium, centrifuged once more, and re-suspended in assay medium to a final density of 5×10^6 cells/mL. Coelenterazine-h dye (500 μM in ethanol) is added to a final concentration of 5 μM, and mixed immediately. The conical tube containing the cells is then wrapped with foil to protect the light-sensitive dye. The cells are incubated for four hours further at room temperature (approximately 21° C.) with end-over-end rotation to keep them in suspension.
(§3) Just before assay, the dye-loaded cells are diluted to 0.75×10^6 cells/mL (H1 receptor) or 1.5×10^6 cells/mL (H4 receptor) with additional assay medium. Cells are dispensed to 1536 well micro-titer plates at 3 μL/well. To assay receptor antagonism, 60 nl of 100× concentration test compounds in 100% dimethyl sulfoxide (DMSO) are dispensed to the wells, one compound per well, by passive pin transfer, and the plates are incubated for 15 minutes at room temperature. Assay plates are then transferred to a Lumilux bioluminescence plate reader (Perkin-Elmer) equipped with an automated 1536 disposable tip pipette. The pipette dispenses 3 μL/well of agonist (histamine, at twice the final concentration, where final concentration is a previously determined EC80) in assay medium, with concurrent bioluminescence detection. […]
(§4) CCD image capture on the Lumilux includes a 5 second baseline read prior to agonist addition, and generally a 40 second read per plate after agonist addition. A decrease in bioluminescence signal (measured either as area-under-the-curve, or maximum signal amplitude minus minimum signal amplitude) correlates with receptor antagonism in a dose dependent manner. […] Efficacy is measured as a percentage of positive control activity.

[2] = biological target: T2, human H1 (Homo sapiens, UniProt P35367); experiment: In vitro histamine receptor cell-based assay (aequorin bioluminescence), H1 antagonism; settings: CHO-K1 cells expressing human H1 and aequorin; histamine at EC80; read-out: H1 Antagonist EC50
T2 construct: host or cells: CHO-K1
T2 sequence (P35367 whole entry): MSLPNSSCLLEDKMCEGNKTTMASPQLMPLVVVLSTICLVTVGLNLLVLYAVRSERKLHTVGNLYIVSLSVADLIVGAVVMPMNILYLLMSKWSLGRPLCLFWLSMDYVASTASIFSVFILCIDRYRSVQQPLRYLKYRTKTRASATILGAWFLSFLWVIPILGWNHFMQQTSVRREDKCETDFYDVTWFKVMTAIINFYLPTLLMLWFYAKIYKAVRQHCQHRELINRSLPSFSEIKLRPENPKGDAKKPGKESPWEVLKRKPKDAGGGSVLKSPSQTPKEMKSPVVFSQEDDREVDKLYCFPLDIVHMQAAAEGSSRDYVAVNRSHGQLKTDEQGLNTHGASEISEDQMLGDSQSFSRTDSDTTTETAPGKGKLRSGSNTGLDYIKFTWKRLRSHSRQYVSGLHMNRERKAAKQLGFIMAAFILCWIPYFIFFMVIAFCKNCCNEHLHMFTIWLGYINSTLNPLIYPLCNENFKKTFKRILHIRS
Protocol: as §1, §2, §3, §4

EC50 [1] [µM] | EC50 [2] [µM] | Compound
≤ 10 | > 10 | Cc1nc2c3cc(Cl)sc3nc(N3CCN(C)CC3)n2n1 [Example 1, 8-chloro-2-methyl-5-(4-methylpiperazin-1-yl)thieno[3,2-e][1,2,4]triazolo[1,5-c]pyrimidine]
≤ 10 | > 10 | Cc1nc2c3sc(Cl)cc3nc(N3CCN(C)CC3)n2n1 [Example 3, 8-chloro-2-methyl-5-(4-methylpiperazin-1-yl)thieno[2,3-e][1,2,4]triazolo[1,5-c]pyrimidine]
≤ 10 | > 10 | Cc1nc2c3cc(Cl)sc3nc(N3CCNCC3)n2n1 [Example 2, 8-chloro-2-methyl-5-(piperazin-1-yl)thieno[3,2-e][1,2,4]-triazolo[1,5-c]pyrimidine]
> 10 | > 10 | Cc1nc2c3sc(Cl)cc3nc(N3CCNCC3)n2n1 [Example 4, 8-chloro-2-methyl-5-(piperazin-1-yl)thieno[2,3-e][1,2,4]triazolo[1,5-c]pyrimidine]

Reference: US20110237599A1, “HETEROCYCLIC INHIBITORS OF HISTAMINE RECEPTORS FOR THE TREATMENT OF DISEASE” (Kalypsys, Inc., priority 2010, published 2011)
